Measured values taken from patent US10005776B2, “Compounds as NIK inhibitors” (Janssen Pharmaceutica NV, priority 2014, dated 2018).

Tests used:
[1] = test system: L-363 cells; experiment: Antiproliferative activity on L-363 cells (CellTiter-Glo); format: cell-based, human; settings: 72 hr treatment, averaged values
Experimental: (§1) Determination of Antiproliferative Activity on LP-1, L-363 and JJN-3 Cells
(§2) All compounds tested were dissolved in DMSO and further dilutions were made in culture medium. Final DMSO concentration was 0.3% (v/v) in cell proliferation assays. Viability was assessed using CellTiter-Glo cell viability assay kit (Promega). The human LP-1, L-363 and JJN-3 cells (DSMZ) were cultured in RPMI 1640 medium supplemented with 2 mM L-glutamine, and 10% fetal calf serum (PAA). Cells were routinely kept as suspension cells at 37° C. in a humidified 5% CO2 atmosphere. Cells were passaged at a seeding density of 0.2×10^6/ml twice a week. Cells were seeded in black tissue culture treated 96-well plates (Perkin Elmer). Densities used for plating ranged from 2,000 to 6,000 cells per well in a total volume of 75 μl medium. After twenty four hours, drugs and/or solvents were added (25 μl) to a final volume of 100 μl. Following 72 hr of treatment plates were removed from the incubator and allowed to equilibrate to room temperature for approx 10 min. 100 μl CellTiter-Glo reagent was added to each well that was then covered (Perkin Elmer Topseal) and shaken on plate shaker for 10 min. Luminescence was measured on a HTS Topcount (Perkin Elmer). Within an experiment, the results for each treatment were the mean of 2 replicate wells. For initial screening purposes, compounds were tested using a 9 point dilution curve (serial 1:3 dilutions). For each experiment, controls (containing no drug) and a blank incubation (containing cells read at the time of compound addition) were run in parallel. The blank value was subtracted from all control and sample values. For each sample, the mean value for cell growth (in relative light units) was expressed as a percentage of the mean value for cell growth of the control.

[2] = test system: JJN-3 cells; experiment: Antiproliferative activity on JJN-3 cells (CellTiter-Glo); format: cell-based, human; settings: 72 hr treatment, averaged values
Experimental: as §1, §2

[3] = test system: LP-1 cells; experiment: Antiproliferative activity on LP-1 cells (CellTiter-Glo); format: cell-based, human; settings: 72 hr treatment, averaged values
Experimental: as §1, §2

[4] = target: Recombinant Human NF-kappaB-Inducing Kinase (NIK/MAP3K14) (Homo sapiens, UniProt Q99558); experiment: Inhibition of auto-phosphorylation of recombinant human NIK/MAP3K14 (AlphaScreen); format: biochemical; settings: 25 microM ATP, 0.2 nM GST-tagged NIK/MAP3K14, 1 h at 25° C.; averaged over all measurements on all batches; read-out: Alpha-Screen IC50
Experimental: Inhibition of Auto-Phosphorylation of Recombinant Human NF-kappaB-Inducing Kinase (NIK/MAP3K14) Activity (AlphaScreen®)
NIK/MAP3K14 auto-phosphorylation activity was measured using the AlphaScreen® (αscreen) format (Perkin Elmer). All compounds tested were dissolved in dimethyl sulfoxide (DMSO) and further dilutions were made in assay buffer. Final DMSO concentration was 1% (v/v) in assays. Assay buffer was 50 mM Tris pH 7.5 containing 1 mM EGTA (ethylene glycol tetraacetic acid), 1 mM DTT (dithiothreitol), 0.1 mM Na3VO4, 5 mM MgCl2, 0.01% Tween® 20. Assays were carried out in 384 well Alphaplates (Perkin Elmer). Incubations consisted of compound, 25 microM Adenosine-5′-triphosphate (ATP), and 0.2 nM NIK/MAP3K14. Incubations were initiated by addition of GST-tagged NIK/MAP3K14 enzyme, carried out for 1 h at 25° C. and terminated by addition of stop buffer containing anti-phospho-IKK Ser176/180 antibody. Protein A Acceptor and Glutathione-Donor beads were added before reading using an EnVision® Multilabel Plate Reader (Perkin Elmer). Signal obtained in the wells containing blank samples was subtracted from all other wells and IC50's were determined by fitting a sigmoidal curve to % inhibition of control versus Log10 compound concentration.

Sequence of Recombinant Human NF-kappaB-Inducing Kinase (NIK/MAP3K14) (Q99558 whole entry): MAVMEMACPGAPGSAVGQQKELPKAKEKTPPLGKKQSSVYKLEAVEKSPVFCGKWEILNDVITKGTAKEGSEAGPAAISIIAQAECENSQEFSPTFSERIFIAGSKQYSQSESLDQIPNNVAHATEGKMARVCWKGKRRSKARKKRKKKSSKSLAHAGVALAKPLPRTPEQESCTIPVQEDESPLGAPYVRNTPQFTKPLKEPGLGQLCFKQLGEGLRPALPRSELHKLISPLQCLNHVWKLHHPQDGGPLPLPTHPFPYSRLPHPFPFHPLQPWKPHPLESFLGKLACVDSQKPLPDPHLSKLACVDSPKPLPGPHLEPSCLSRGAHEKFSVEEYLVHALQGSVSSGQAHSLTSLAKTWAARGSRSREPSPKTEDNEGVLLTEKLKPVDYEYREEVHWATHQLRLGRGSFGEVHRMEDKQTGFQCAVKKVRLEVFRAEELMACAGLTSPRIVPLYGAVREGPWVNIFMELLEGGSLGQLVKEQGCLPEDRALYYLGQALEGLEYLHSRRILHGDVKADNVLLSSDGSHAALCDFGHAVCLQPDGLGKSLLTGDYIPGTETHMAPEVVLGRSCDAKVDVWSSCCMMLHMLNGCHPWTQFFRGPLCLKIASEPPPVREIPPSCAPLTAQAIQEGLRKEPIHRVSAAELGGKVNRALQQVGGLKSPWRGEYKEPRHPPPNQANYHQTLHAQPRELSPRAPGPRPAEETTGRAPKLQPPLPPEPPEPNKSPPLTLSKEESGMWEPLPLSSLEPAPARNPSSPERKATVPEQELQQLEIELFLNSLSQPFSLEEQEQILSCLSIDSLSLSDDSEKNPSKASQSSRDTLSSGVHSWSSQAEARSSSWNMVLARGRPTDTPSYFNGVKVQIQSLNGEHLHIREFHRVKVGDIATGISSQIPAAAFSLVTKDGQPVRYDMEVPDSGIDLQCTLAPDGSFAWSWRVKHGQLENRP

Structure (SMILES) | EC50 ([1]; Homo sapiens, L-363, 72 h) | EC50 ([2]; Homo sapiens, JJN-3, 72 h) | EC50 ([3]; Homo sapiens, LP-1, 72 h) | IC50 [4] | EC50 [1] | EC50 [2] | EC50 [3]
Cc1nc(C#CC(C)(O)C2CC2)cc2c(-c3nc(N)ncc3F)c[nH]c12 (stereo not drawn) [Compound 2] | 5 nM | 7 nM | 39 nM | 7 nM | – | – | –
CCCCN1CCC(n2cc(-c3nc(N)ncc3F)c3cc(C#CC(C)(O)C4CC4)ncc32)C1 (single isomer, unassigned) [Compound 26] | 63 nM | 101 nM | 114 nM | 18 nM | – | – | –
[2H]C([2H])([2H])C(O)(C#Cc1cc2c(-c3nc(N)ncc3F)cn(C3CCCN(CCC)C3)c2cn1)C([2H])([2H])[2H] (stereo not drawn) [Compound 12] | – | – | – | 56 nM | 42 nM | 38 nM | 76 nM
CCCN1CCC(n2cc(-c3nc(N)ncc3F)c3cc(C#CC(C)(O)C4CC4)ncc32)C1 (stereo not drawn) [Compound 6] | 31 nM | 62 nM | 69 nM | 29 nM | – | – | –
CC(O)(C#Cc1cc2c(-c3nc(N)ncc3F)cn(C3CN(C4CC4)C3)c2cn1)c1nccs1 (single isomer, unassigned) [Compound 28] | – | – | 4260 nM | 16 nM | 402 nM | 408 nM | –
CCN1CCC(n2cc(-c3nc(N)ncc3F)c3cc(C#CC(C)(O)C4CC4)nc(C)c32)C1 (stereo not drawn) [Compound 10] | 10 nM | 22 nM | 20 nM | 58 nM | – | – | –
CC(O)(C#Cc1cc2c(-c3nc(N)ncc3F)cn(C3CN(CCC(F)(F)F)C3)c2cn1)C1CC1 (stereo not drawn) [Compound 5] | 175 nM | 227 nM | 377 nM | 74 nM | – | – | –
CC(O)(C#Cc1cc2c(-c3nc(N)ncc3F)c[nH]c2cn1)c1nccs1 (stereo not drawn) [Compound 19] | 1270 nM | 1010 nM | 7620 nM | 3 nM | – | – | –
CC(O)(C#Cc1cc2c(-c3nc(N)ncc3F)c[nH]c2cn1)c1nccs1 (single isomer, unassigned) [Compound 30] | – | – | – | 20 nM | 4760 nM | 2080 nM | 11600 nM
[2H]C([2H])([2H])C(O)(C#Cc1cc2c(-c3nc(N)ncc3F)cn(C3CCCN(CCC)C3)c2cn1)C([2H])([2H])[2H] (single isomer, unassigned) [Compound 25] | – | – | – | 82 nM | 66 nM | 102 nM | 163 nM
CC(O)(C#Cc1cc2c(-c3nc(N)ncc3F)c[nH]c2cn1)c1nccs1 (single isomer, unassigned) [Compound 31] | – | – | – | 2 nM | 1210 nM | 634 nM | 5740 nM
Nc1ncc(F)c(-c2c[nH]c3cnc(C#CC4(O)CCCC4)cc23)n1 [Compound 20] | 126 nM | 152 nM | 1120 nM | 2 nM | – | – | –
COCCN1CCC(n2cc(-c3nc(N)ncc3F)c3cc(C#CC(C)(O)C4CC4)ncc32)C1 (stereo not drawn) [Compound 7] | 144 nM | 222 nM | 320 nM | 26 nM | – | – | –
Cc1cc(C(C)(O)C#Cc2cc3c(-c4nc(N)ncc4F)cn(C4CN(C5CC5)C4)c3cn2)no1 (stereo not drawn) [Compound 16] | 811 nM | 951 nM | 1800 nM | 34 nM | – | – | –
Cc1cc(C(C)(O)C#Cc2cc3c(-c4nc(N)ncc4F)c[nH]c3cn2)no1 (single isomer, unassigned) [Compound 32] | – | – | – | 379 nM | 5500 nM | 4340 nM | 19600 nM
Cc1nc(C(C)(O)C#Cc2cc3c(-c4nc(N)ncc4F)cn(C4CN(C5CC5)C4)c3cn2)no1 (stereo not drawn) [Compound 15] | 2720 nM | 3220 nM | 14400 nM | 144 nM | – | – | –
CCCCN1CCC(n2cc(-c3nc(N)ncc3F)c3cc(C#CC(C)(O)C4CC4)ncc32)C1 (single isomer, unassigned) [Compound 27] | – | – | – | 26 nM | 53 nM | 92 nM | 100 nM

Structure (SMILES) | EC50 ([1]; Homo sapiens, L-363, 72 h) | EC50 ([2]; Homo sapiens, JJN-3, 72 h) | EC50 ([3]; Homo sapiens, LP-1, 72 h) | IC50 [4] | EC50 [1] | EC50 [2] | EC50 [3]
CC(C)N1CCC(n2cc(-c3nc(N)ncc3F)c3cc(C#CC(C)(O)C4CC4)ncc32)C1 (stereo not drawn) [Compound 3] | 56 nM | 133 nM | 147 nM | 155 nM | – | – | –
Nc1ncc(F)c(-c2c[nH]c3c(C4CC4)nc(C#CC4(O)CCCC4)cc23)n1 [Compound 22] | 24 nM | 37 nM | 110 nM | 37 nM | – | – | –
CC(O)(C#Cc1cc2c(-c3nc(N)ncc3F)cn(C3CN(C4CC4)C3)c2cn1)c1nccs1 (single isomer, unassigned) [Compound 29] | – | – | – | 735 nM | 3080 nM | 1930 nM | 3530 nM
CC(O)(C#Cc1cc2c(-c3nc(N)ncc3F)cn(C3CN(C4CC4)C3)c2cn1)c1nccs1 (stereo not drawn) [Compound 14] | 1220 nM | 631 nM | 3980 nM | 16 nM | – | – | –
COCCCN1CCC(n2cc(-c3nc(N)ncc3F)c3cc(C#CC(C)(O)C4CC4)ncc32)C1 (stereo not drawn) [Compound 8] | 80 nM | 119 nM | 158 nM | 30 nM | – | – | –
CCCCN1CCC(n2cc(-c3nc(N)ncc3F)c3cc(C#CC(C)(O)C4CC4)ncc32)C1 (stereo not drawn) [Compound 11] | 40 nM | 62 nM | 52 nM | 21 nM | – | – | –
CC(O)(C#Cc1cc2c(-c3nc(N)ncc3F)cn(C3CN(C4CC4)C3)c2cn1)c1ncccn1 (stereo not drawn) [Compound 17] | 8260 nM | 6720 nM | 29000 nM | 189 nM | – | – | –
CC(O)(C#Cc1cc2c(-c3nc(N)ncc3F)c[nH]c2c(C2CC2)n1)C1CC1 (stereo not drawn) [Compound 1] | 4 nM | 8 nM | 19 nM | 95 nM | – | – | –
Cc1cc(C(C)(O)C#Cc2cc3c(-c4nc(N)ncc4F)c[nH]c3c(C3CC3)n2)no1 (stereo not drawn) [Compound 23] | 368 nM | 442 nM | 1280 nM | 67 nM | – | – | –
CC(O)(C#Cc1cc2c(-c3nc(N)ncc3F)c[nH]c2c(C2CC2)n1)C1CC1 (single isomer, unassigned) [Compound 13] | 4 nM | 7 nM | 15 nM | 29 nM | – | – | –
[2H]C([2H])([2H])C(O)(C#Cc1cc2c(-c3nc(N)ncc3F)cn(C3CCCN(CCC)C3)c2cn1)C([2H])([2H])[2H] (single isomer, unassigned) [Compound 24] | – | – | – | 90 nM | 118 nM | 135 nM | 219 nM
Nc1ncc(F)c(-c2cn(C3CN(C4CC4)C3)c3cnc(C#CC4(O)CCCC4)cc23)n1 [Compound 21] | 408 nM | 464 nM | 1000 nM | 95 nM | – | – | –
CC(C)n1cc(-c2nc(N)ncc2OCCN2CCOCC2)c2cc(C#CC(C)(O)C3CC3)ncc21 (stereo not drawn) [Compound 4] | 152 nM | 208 nM | 1190 nM | 150 nM | – | – | –
Cc1cc(C(C)(O)C#Cc2cc3c(-c4nc(N)ncc4F)c[nH]c3cn2)no1 (single isomer, unassigned) [Compound 33] | – | – | – | 3 nM | 472 nM | 593 nM | 4120 nM
Cc1cc(C(C)(O)C#Cc2cc3c(-c4nc(N)ncc4F)c[nH]c3cn2)no1 (stereo not drawn) [Compound 18] | 1090 nM | 1190 nM | 5030 nM | 10 nM | – | – | –
CC(O)C#Cc1cc2c(-c3nc(N)ncc3F)cn(C3CN(C4CC4)C3)c2cn1 (stereo not drawn) [Compound 9] | 37 nM | 55 nM | 131 nM | 69 nM | – | – | –
